Data as given in ChEMBL document CHEMBL1201862, “PubChem BioAssay data set” (2004).
Calls of active or inactive are those of the source.

Key:
[1] = target: T1, Tyrosine-protein phosphatase non-receptor type 7 (Homo sapiens, UniProt P35236); format: functional
T1 sequence (P35236 whole entry): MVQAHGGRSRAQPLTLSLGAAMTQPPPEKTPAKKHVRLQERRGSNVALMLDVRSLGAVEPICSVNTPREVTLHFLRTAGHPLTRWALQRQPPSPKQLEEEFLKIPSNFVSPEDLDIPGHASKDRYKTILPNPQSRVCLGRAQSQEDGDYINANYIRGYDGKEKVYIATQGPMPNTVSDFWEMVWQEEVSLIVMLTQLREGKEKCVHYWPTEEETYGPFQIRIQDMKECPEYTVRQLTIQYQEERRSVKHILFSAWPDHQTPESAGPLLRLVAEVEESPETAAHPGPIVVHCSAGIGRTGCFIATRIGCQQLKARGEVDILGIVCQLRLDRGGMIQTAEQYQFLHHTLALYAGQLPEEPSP

[2] = target: T2, Tyrosine-protein phosphatase non-receptor type 22 (Homo sapiens, UniProt Q9Y2R2); format: functional
T2 sequence (Q9Y2R2 whole entry): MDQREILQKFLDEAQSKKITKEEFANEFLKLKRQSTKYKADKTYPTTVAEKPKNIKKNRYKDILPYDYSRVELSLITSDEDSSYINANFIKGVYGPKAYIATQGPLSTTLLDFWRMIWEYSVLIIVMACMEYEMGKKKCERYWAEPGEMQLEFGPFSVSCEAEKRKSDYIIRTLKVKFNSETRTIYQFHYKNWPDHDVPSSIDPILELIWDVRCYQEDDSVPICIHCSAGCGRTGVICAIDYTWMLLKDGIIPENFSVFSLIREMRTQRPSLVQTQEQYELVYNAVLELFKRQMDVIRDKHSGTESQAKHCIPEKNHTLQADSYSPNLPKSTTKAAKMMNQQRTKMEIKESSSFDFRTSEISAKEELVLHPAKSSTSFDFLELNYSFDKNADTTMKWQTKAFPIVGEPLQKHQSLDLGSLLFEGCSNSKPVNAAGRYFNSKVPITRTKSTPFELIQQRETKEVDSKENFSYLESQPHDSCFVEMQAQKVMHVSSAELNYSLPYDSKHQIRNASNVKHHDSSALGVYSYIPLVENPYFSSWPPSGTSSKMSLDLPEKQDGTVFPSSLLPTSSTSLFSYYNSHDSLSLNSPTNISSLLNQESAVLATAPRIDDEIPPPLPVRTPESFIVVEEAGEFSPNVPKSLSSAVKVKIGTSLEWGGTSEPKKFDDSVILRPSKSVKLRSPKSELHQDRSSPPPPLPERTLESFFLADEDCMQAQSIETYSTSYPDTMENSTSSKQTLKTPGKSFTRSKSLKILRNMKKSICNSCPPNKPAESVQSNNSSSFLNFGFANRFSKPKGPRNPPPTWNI

[3] = target: T2, Tyrosine-protein phosphatase non-receptor type 22; format: functional; remark: listed apart in the source
[4] = target: UDP-galactopyranose mutase (Mycobacterium tuberculosis, UniProt P9WIQ1); test: Inhibitors of Mycobacterium tuberculosis UDP-galactopyranose mutase (UGM) enzyme Measured in Biochemical System Using Plate Reader - 2105-02_Inhibitor_Dose_CherryPick_Activity. [Related pubchem assays (depositor defined):AID504439]
[5] = target: T3, Histone-lysine N-methyltransferase NSD2 (Homo sapiens, UniProt O96028); format: biochemical
T3 sequence (O96028 whole entry): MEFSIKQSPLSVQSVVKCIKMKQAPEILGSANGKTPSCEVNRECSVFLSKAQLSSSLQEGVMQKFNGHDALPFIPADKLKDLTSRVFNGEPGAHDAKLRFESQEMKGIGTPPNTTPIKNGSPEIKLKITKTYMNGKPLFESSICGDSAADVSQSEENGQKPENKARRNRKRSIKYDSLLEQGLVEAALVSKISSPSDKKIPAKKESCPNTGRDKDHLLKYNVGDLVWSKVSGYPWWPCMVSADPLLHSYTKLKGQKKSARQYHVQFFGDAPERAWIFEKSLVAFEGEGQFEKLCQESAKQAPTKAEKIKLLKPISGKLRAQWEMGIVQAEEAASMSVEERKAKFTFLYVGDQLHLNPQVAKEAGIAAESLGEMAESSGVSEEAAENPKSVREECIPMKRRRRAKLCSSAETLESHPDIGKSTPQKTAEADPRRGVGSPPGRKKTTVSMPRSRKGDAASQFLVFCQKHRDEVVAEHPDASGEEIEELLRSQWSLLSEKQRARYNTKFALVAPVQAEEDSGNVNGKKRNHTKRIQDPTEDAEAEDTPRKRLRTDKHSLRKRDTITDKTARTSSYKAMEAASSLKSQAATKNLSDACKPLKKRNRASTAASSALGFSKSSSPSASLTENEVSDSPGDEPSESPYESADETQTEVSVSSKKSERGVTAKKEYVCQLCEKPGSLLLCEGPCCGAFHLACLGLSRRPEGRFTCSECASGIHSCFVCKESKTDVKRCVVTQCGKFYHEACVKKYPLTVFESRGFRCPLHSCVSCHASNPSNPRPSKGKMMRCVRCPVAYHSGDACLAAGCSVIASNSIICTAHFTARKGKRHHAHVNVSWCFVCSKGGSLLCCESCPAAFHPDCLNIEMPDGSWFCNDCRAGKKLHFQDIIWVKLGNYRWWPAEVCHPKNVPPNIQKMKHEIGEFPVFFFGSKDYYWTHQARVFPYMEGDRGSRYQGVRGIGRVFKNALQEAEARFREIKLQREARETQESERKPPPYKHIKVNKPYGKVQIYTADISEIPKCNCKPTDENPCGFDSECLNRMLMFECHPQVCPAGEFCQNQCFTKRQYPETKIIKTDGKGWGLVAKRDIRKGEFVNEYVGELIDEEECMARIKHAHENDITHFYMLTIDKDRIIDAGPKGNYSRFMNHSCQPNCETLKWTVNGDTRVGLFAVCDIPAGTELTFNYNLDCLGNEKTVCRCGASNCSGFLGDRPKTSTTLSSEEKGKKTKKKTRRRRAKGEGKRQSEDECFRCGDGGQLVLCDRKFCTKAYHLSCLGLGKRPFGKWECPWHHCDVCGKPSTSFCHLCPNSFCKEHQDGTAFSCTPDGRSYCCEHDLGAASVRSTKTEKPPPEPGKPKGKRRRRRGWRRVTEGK

[6] = target: T4, Endoribonuclease toxin MazF (Escherichia coli K-12, UniProt P0AE70); test: MazF toxin RNase activators, dose response, biochemical, fluorescence, single-stranded RNA substrate, uHTS hits (AID 588481); format: functional
T4 sequence (P0AE70 whole entry): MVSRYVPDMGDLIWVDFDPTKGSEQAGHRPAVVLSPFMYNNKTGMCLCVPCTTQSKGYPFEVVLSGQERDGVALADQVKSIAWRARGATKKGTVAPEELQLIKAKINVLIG

[7] = target: T4, Endoribonuclease toxin MazF; test: fluorescent RNA oligo signal without MazF, dose response, counter-screen for MazEF activator project, biochemical, fluorescence, single-stranded RNase substrate (AID 588502); format: functional
[8] = target: Sphingosine 1-phosphate receptor 5 (Homo sapiens, UniProt Q9H228); test: Late stage counterscreen assay for S1P4 antagonists: Fluorescence dose response cell-based screening assay for antagonists of the Sphingosine 1-Phosphate Receptor 5 (S1P5). [Related pubchem assays (depositor defined):AID1510, AID1524, AID1692, AID1853, AID2332, AID489009, AID489017]; format: functional
[9] = target: Sphingosine 1-phosphate receptor 3 (Homo sapiens, UniProt Q99500); test: Late stage counterscreen assay for S1P4 antagonists: Fluorescence dose response cell-based screening assay for antagonists of the Sphingosine 1-Phosphate Receptor 3 (S1P3). [Related pubchem assays (depositor defined):AID1510, AID1524, AID1692, AID1853, AID2332, AID489009, AID489017]; format: functional
[10] = target: Sphingosine 1-phosphate receptor 1 (Homo sapiens, UniProt P21453); test: Late stage counterscreen assay for S1P4 antagonists: Fluorescence dose response cell-based screening assay for antagonists of the Sphingosine 1-Phosphate Receptor 1 (S1P1). [Related pubchem assays (depositor defined):AID1510, AID1524, AID1692, AID1853, AID2332, AID489009, AID489017]; format: functional
[11] = target: Sphingosine 1-phosphate receptor 2 (Homo sapiens, UniProt O95136); test: Late stage counterscreen assay for S1P4 antagonists: Fluorescence dose response cell-based screening assay for antagonists of the Sphingosine 1-Phosphate Receptor 2 (S1P2). [Related pubchem assays (depositor defined):AID1510, AID1524, AID1692, AID1853, AID2332, AID489009, AID489017]; format: functional
Chain of Sphingosine 1-phosphate receptor 2 (O95136 whole entry): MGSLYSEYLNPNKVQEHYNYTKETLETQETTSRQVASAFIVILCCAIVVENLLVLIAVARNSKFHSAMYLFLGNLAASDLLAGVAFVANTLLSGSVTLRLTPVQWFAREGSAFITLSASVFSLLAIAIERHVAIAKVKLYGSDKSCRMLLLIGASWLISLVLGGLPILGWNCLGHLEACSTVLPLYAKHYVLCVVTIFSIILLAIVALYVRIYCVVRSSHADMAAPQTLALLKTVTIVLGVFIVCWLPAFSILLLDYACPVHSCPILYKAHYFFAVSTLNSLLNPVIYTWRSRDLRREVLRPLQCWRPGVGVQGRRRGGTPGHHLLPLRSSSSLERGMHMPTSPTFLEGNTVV

Chain of UDP-galactopyranose mutase (P9WIQ1 whole entry): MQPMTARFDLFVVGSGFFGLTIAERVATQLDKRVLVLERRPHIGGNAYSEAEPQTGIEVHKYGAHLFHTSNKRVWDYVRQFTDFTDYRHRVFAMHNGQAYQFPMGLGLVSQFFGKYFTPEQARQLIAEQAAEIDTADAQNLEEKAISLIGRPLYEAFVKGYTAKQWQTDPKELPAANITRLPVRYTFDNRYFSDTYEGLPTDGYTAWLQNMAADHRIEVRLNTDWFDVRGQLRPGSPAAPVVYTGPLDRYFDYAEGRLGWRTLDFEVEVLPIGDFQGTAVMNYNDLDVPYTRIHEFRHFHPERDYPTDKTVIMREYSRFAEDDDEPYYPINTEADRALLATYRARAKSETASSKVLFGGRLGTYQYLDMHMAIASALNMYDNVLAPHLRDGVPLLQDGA
Chain of Sphingosine 1-phosphate receptor 5 (Q9H228 whole entry): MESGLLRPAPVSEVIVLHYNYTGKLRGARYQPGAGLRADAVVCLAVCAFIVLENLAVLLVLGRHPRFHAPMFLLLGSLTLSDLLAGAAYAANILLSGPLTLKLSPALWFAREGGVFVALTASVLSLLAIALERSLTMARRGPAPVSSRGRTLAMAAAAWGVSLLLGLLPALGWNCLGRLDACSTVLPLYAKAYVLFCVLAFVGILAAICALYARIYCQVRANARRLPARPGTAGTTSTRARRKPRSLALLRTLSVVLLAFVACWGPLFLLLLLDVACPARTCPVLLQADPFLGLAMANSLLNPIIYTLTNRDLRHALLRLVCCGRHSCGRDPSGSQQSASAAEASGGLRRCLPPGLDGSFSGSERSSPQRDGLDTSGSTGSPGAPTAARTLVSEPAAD
Chain of Sphingosine 1-phosphate receptor 3 (Q99500 whole entry): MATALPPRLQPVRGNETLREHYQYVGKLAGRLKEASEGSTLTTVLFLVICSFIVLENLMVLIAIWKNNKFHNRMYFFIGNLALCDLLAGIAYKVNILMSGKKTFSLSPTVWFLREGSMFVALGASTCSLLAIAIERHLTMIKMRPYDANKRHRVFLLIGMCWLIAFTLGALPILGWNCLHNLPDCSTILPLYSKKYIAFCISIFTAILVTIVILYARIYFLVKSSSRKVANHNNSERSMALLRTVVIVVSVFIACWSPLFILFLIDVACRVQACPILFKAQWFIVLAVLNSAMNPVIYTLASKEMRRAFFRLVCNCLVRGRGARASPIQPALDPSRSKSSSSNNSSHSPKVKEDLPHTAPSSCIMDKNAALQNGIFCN
Chain of Sphingosine 1-phosphate receptor 1 (P21453 whole entry): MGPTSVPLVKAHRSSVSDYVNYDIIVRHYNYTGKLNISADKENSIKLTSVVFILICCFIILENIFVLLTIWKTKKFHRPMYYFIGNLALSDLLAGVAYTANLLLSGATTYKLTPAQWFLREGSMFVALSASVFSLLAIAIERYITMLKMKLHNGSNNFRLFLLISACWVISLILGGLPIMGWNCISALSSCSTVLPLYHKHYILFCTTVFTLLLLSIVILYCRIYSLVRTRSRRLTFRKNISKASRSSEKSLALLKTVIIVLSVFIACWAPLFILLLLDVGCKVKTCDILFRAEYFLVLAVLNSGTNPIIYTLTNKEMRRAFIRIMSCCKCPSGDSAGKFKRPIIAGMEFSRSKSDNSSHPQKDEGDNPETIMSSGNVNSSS

With `COc1ccc(OC(C)C(=O)N2CC(C)OC(C)C2)cc1` (configuration not stated) the IC50 [1] was > 79.4 µM (inactive), the IC50 [2] was > 79.4 µM (inactive) and the IC50 [3] was > 79.4 µM (inactive).

In the case of `COc1ccc(-n2c(C)ccc2-c2ccccc2)cn1`, the AC50 [4] is reported as 58 µM (active) and the AC50 [5] is reported as > 20 µM (inactive).

`Oc1[nH]c2ccc(Br)cc2c1N=Nc1ccc(F)cc1` was tested, and the EC50 [6] was > 99 µM (inactive), the AC50 [4] was 91.6 µM (active) and the EC50 [7] was 45.8 µM (inactive).

In the case of `Cc1cccc(C)c1NC(=O)c1ccc(-c2cc(F)ccc2F)o1`, the IC50 [8] is reported as > 25 µM (inactive), the IC50 [9] is reported as > 25 µM (inactive) and the IC50 [10] is reported as > 25 µM (inactive). The IC50 [11] was 16.9 µM (inactive).
